From PMC8372979 (Journal of medicinal chemistry, 2020)

Experiments:
CYP3A4 = CYP3A4 induction; assay type: in vitro ADME; conditions: in words
Caco-2 cells = test: Caco-2 permeability; assay type: in vitro ADME
[1] = Pharmacokinetics in female NMRI mice; assay type: in vivo, mouse
[2] = system: Bloodstream Trypanosoma brucei brucei Lister 427 (STIB 795); test: Growth inhibition assay for T. brucei brucei; assay type: cell-based; conditions: pEC50=−logEC50; 72 h, resazurin

| Molecule | CYP3A4 Liability (induction) (CYP3A4) | A-B Permeability Ranking (Caco-2 cells; Caco-2) | Caco-2 efflux (Caco-2 cells; in words) | Caco-2 permeability (Caco-2 cells; in words) | Cmax ([1]; female, NMRI, mouse, in vivo, ip, 10 mg/kg, Mean Cmax ± SD, non-infected female NMRI mice, 10 mg/kg ip, without ABT-pretreatment, blood) [ng/mL] | Mean tmax ([1]; infected female NMRI mice, 30 mg/kg ip + ABT, day 1, blood) [min] | T. brucei pEC50 [2] |
| --- | --- | --- | --- | --- | --- | --- | --- |
| Cn1nccc1Nc1nc(NCC(F)(F)F)c2nc[nH]c2n1 [Compound 4aa, N^2-(1-methyl-1H-pyrazol-5-yl)-N^6-(2,2,2-trifluoroethyl)-9H-purine-2,6-diamine] | does not have CYP3A4 induction liability | Higher | rapidly effluxed | Permeable | 3670 ± 922 | 30 to 120 |  |
| N^6-(tert-butyl)-N^2-(thiophen-3-yl)-9H-purine-2,6-diamine [Compound 5r] |  |  |  |  |  |  | 7.1 |
